One experiment concerns the target NRAS G12C (Homo sapiens, UniProt P01111+P62937, G12C). Description: Disruption of BRAF RBD interaction with Ras (FRET / MOA assay). The format is biochemical. The method in brief: (§1)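 Test compounds drive ternary complex formation between nucleotide-loaded Ras and Cyclophilin A, which disrupts Ras binding to a BRAF^RBD construct. Compound was tested as a 10-point 3-fold dilution series from 30 μM final. IC50 was derived from the decrease in TR-FRET ratio relative to DMSO control wells.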

Another experiment has as its target KRAS G12C (Homo sapiens, UniProt P01116+P62937, G12C). Description: Disruption of BRAF RBD interaction with K-Ras (FRET / MOA assay). The format is biochemical. On the procedure: (§2) Compound is present in plate wells as a 10-point 3-fold dilution series starting at a final concentration of 30 μM. […] Compounds that facilitate disruption of a Ras:RAF complex are identified as those eliciting a decrease in the TR-FRET ratio relative to DMSO control wells.
(§3) Note—The following protocol describes a procedure for monitoring disruption of K-Ras G12C (GMP-PNP) binding to BRAF^RBD by a compound of the invention. This protocol may also be executed substituting other Ras proteins or nucleotides.
(§4) The purpose of this biochemical assay was to measure the ability of test compounds to facilitate ternary complex formation between a nucleotide-loaded K-Ras isoform and Cyclophilin A; the resulting ternary complex disrupts binding to a BRAF^RBD construct, inhibiting K-Ras signaling through a RAF effector. Data is reported as IC50 values.
(§5) Compound was present in plate wells as a 10-point 3-fold dilution series starting at a final concentration of 30 μM. […] Compounds that facilitate disruption of a K-Ras:RAF complex were identified as those eliciting a decrease in the TR-FRET ratio relative to DMSO control wells.

Another experiment has as its target KRAS G12V (Homo sapiens, UniProt P01116+P62937, G12V). The description is as above. The class given is biochemical. On the procedure:
as §2, §3, §4, §5

The target of the next experiment is KRAS G13C (Homo sapiens, UniProt P01116+P62937, G13C). Described as above. The class given is biochemical. On the procedure:
as §2, §3, §4, §5

In a further experiment the test system is NCI-H358 (K-Ras G12C). Kind of experiment: CellTiter-Glo Cell Viability Assay. The format is cell-based. The following applies: Homo sapiens, NCI-H358, 120 h; H358, 5-day treatment. (In general: ATP-based viability assays read luminescence as a measure of living cells.)
Another experiment deals with NRAS Q61R (Homo sapiens, UniProt P01111+P62937, Q61R). Kind of experiment: Disruption of BRAF RBD interaction with Ras (FRET / MOA assay). The format is biochemical. The following applies: read-out: NRAS Q61R FRET data IC50. The gist of the method:
as §1

The next experiment has as its target NRAS WT (Homo sapiens, UniProt P01111+P62937). The description is as above. The class given is biochemical. The following applies: read-out: NRAS WT FRET data IC50. The gist of the method: as §1
The target in the next experiment is NRAS Q61K (Homo sapiens, UniProt P01111+P62937, Q61K). The description is as above. The format is biochemical. The following applies: read-out: NRAS Q61K FRET data IC50. The gist of the method:
as §1

In another experiment the target is KRAS G12S (Homo sapiens, UniProt P01116+P62937, G12S). Description: Disruption of BRAF RBD interaction with K-Ras (FRET / MOA assay). The format is biochemical. On the procedure:
as §2, §3, §4, §5

A further experiment deals with KRAS Q61H (Homo sapiens, UniProt P01116+P62937, Q61H). The experiment is described as above. The class given is biochemical. The following applies: read-out: KRAS Q61H FRET data IC50. As to the method:
as §2, §3, §4, §5

Another experiment relates to SWi573. The following applies: cited from earlier work.
For a further experiment, the system named is Capan-1 (K-Ras G12V). Kind of experiment: Potency assay: pERK. The following applies: Homo sapiens. The format is cell-based.
A further experiment addresses KRAS G12D (Homo sapiens, UniProt P01116+P62937, G12D). Description: Disruption of BRAF RBD interaction with K-Ras (FRET / MOA assay). The class given is biochemical. On the procedure: as §2, §3, §4, §5
The target of the next experiment is KRAS G13D (Homo sapiens, UniProt P01116+P62937, G13D). The description is as above. The format is biochemical. As to the method:
as §2, §3, §4, §5

The test system of experiment [1] is NCI-H358 cells (K-Ras G12C). Kind of experiment: Potency assay: pERK. The format is cell-based. The following applies: Homo sapiens. As to the method: The purpose of this assay is to measure the ability of test compounds to inhibit K-Ras in cells. […] This procedure measures a decrease in cellular pERK in response to test compounds. The procedure described below in NCI-H358 cells is applicable to K-Ras G12C.
NCI-H358 cells were grown and maintained using media and procedures recommended by the ATCC. On the day prior to compound addition, cells were plated in 384-well cell culture plates (40 μl/well) and grown overnight in a 37° C., 5% CO2 incubator. Test compounds were prepared in 10, 3-fold dilutions in DMSO, with a high concentration of 10 mM. On day of assay, 40 nl of test compound was added to each well of cell culture plate using an Echo550 liquid handler (LabCyte®). Concentrations of test compound were tested in duplicate. […]
In some experiments, cellular pERK level was determined using the AlphaLISA SureFire Ultra p-ERK1/2 Assay Kit (PerkinElmer). […] Signal was read on an Envision plate reader (PerkinElmer) using standard AlphaLISA settings. […] Signal was plotted vs. the decadal logarithm of compound concentration, and IC50 was determined by fitting a 4-parameter sigmoidal concentration response model.
In other experiments, cellular pERK was determined by In-Cell Western. […] Signal was plotted vs. the decadal logarithm of compound concentration, and IC50 was determined by fitting a 4-parameter sigmoidal concentration response model.

Another experiment relates to AsPC-1 (K-Ras G12D). Kind of experiment: Potency assay: pERK. The following applies: Homo sapiens, ASPC1. The format is cell-based.
The test system of experiment [2] is Capan-2 KRASG12V/wt xenograft model. Kind of experiment: Tumor growth in Capan-2 CDX model. The class given is in vivo, BALB/c nude mice. The following applies: Compound A 100 mg/kg po bid daily, RMC-4550 20 mg/kg po every other day. On the procedure:
Capan-2 cells were implanted in 50% Matrigel. Animals were randomized and treatment was initiated at average tumor volume of ˜180 mm3. […] Ns=no significance; ***p<0.001 by one-way ANOVA.
Once tumors reached an average size of ˜180 mm3, mice were randomized to treatment groups to start the administration of test articles or vehicle. […] Body weight and tumor volume (using calipers) was measured twice weekly until study endpoints.

Setting [3] is: read-out: KRAS G12C FRET data IC50.
The mark [4] stands for this setting: read-out: KRAS G13C FRET data IC50.

Usually pIC50 stands for the IC50 on a negative log10 scale, so that one unit is a factor of ten. The pEC50 is the EC50 on a negative log10 scale, so that one unit is a factor of ten. What is called TGI is how far tumour growth fell short of that in controls. Lower therefore signals little slowing of growth.

pEC50, pIC50: −log10 of the molar value. Where two headings read alike, the source gives them in different places.

Sequence of KRAS G13C (P01116 1-188 isoform P01116-2 G13C): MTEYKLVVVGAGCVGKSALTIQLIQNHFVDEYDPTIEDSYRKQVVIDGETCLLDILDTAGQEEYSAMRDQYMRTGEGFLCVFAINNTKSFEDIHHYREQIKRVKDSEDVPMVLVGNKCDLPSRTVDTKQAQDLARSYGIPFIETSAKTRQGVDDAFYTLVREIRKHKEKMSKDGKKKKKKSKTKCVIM
Sequence of KRAS G13C (P62937 whole entry): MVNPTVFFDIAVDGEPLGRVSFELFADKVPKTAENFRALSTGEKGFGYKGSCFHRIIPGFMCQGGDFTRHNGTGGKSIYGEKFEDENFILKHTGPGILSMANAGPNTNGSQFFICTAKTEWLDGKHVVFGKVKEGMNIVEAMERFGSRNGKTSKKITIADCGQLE
Sequence of KRAS G12C (P01116 1-188 isoform P01116-2 G12C): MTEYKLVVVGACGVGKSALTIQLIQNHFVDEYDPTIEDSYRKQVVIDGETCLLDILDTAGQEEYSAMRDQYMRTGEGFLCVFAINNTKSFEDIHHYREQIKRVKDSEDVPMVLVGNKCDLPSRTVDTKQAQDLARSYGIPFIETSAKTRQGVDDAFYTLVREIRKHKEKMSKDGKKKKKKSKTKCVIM
Sequence of KRAS G12C (P62937 whole entry): as the sequence (P62937 whole entry) above
Sequence of NRAS G12C (P01111 whole entry G12C): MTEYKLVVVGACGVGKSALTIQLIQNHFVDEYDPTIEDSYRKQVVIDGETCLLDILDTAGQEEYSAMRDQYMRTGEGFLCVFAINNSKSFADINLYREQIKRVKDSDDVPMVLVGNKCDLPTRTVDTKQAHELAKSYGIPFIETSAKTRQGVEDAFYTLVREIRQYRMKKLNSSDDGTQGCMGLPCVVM
Sequence of NRAS G12C (P62937 whole entry): as the sequence (P62937 whole entry) above
Sequence of KRAS G12V (P01116 1-188 isoform P01116-2 G12V): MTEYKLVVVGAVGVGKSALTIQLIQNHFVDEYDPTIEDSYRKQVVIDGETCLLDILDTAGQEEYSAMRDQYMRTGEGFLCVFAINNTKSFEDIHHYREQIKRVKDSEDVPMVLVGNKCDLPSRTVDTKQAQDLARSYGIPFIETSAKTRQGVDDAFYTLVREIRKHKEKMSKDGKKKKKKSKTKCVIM
Sequence of KRAS G12V (P62937 whole entry): as the sequence (P62937 whole entry) above
Sequence of NRAS WT (P01111 whole entry): as the sequence (P01111 whole entry G12C) above, with C12G counted along it
Sequence of NRAS WT (P62937 whole entry): as the sequence (P62937 whole entry) above
Sequence of NRAS Q61R (P01111 whole entry Q61R): as the sequence (P01111 whole entry G12C) above, with C12G, Q61R counted along it
Sequence of NRAS Q61R (P62937 whole entry): as the sequence (P62937 whole entry) above
Sequence of KRAS G13D (P01116 1-188 isoform P01116-2 G13D): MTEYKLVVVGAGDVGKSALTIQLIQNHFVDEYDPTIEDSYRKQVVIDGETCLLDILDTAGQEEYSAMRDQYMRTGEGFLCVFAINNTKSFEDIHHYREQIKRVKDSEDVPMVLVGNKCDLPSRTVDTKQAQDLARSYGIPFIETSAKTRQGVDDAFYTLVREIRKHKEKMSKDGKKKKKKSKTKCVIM
Sequence of KRAS G13D (P62937 whole entry): as the sequence (P62937 whole entry) above
Sequence of KRAS G12S (P01116 1-188 isoform P01116-2 G12S): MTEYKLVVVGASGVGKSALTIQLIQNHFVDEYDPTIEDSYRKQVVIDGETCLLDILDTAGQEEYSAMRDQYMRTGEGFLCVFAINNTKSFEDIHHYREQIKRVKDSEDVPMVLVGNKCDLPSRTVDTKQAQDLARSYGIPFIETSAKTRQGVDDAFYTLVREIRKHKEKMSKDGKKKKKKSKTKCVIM
Sequence of KRAS G12S (P62937 whole entry): as the sequence (P62937 whole entry) above
Sequence of NRAS Q61K (P01111 whole entry Q61K): as the sequence (P01111 whole entry G12C) above, with C12G, Q61K counted along it
Sequence of NRAS Q61K (P62937 whole entry): as the sequence (P62937 whole entry) above
Sequence of KRAS Q61H (P01116 1-188 isoform P01116-2 Q61H): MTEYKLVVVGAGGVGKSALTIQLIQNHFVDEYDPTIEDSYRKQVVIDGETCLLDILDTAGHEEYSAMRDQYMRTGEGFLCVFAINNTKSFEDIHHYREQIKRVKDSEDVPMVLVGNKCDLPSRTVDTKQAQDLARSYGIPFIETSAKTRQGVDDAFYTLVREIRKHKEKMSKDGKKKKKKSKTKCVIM
Sequence of KRAS Q61H (P62937 whole entry): as the sequence (P62937 whole entry) above
Sequence of KRAS G12D (P01116 1-188 isoform P01116-2 G12D): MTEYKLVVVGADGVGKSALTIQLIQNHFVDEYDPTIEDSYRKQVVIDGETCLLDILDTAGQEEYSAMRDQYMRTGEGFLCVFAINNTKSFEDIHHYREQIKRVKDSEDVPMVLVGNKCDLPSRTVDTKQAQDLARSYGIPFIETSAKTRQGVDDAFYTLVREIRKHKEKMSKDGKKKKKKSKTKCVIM
Sequence of KRAS G12D (P62937 whole entry): as the sequence (P62937 whole entry) above

Take `CCn1c(-c2cccnc2[C@H](C)OC)c2c3cc(ccc31)-c1cc(O)cc(c1)C[C@H](NC(=O)[C@H](C(C)C)N(C)C(=O)[C@@H]1CN(C(=O)OC)C[C@@H]1C)C(=O)N1CCC[C@H](N1)C(=O)OCC(C)(C)C2` (atropisomer, axis not shown) [Compound A325]: the pIC50 on NRAS G12C, on KRAS G12C (setting [3]), at KRAS G12V (read-out: KRAS G12V FRET data IC50), on KRAS G13C (setting [4]) and with NCI-H358 (K-Ras G12C) was above 8.00 in each case.

In the case of `CCn1c(-c2cccnc2[C@H](C)OC)c2c3cc(ccc31)-c1cc(O)cc(c1)C[C@H](NC(=O)[C@H](C(C)C)N(C)C(=O)[C@@H]1CCN(C(=O)OC)[C@@H]1c1ccccc1)C(=O)N1CCC[C@H](N1)C(=O)OCC(C)(C)C2` (atropisomer, axis not shown) [Compound A501], the negative-log IC50 (pIC50) on NRAS Q61R was 7.00 to 8.00; at NRAS WT, above 8.00; at NRAS G12C it was above 8.00; on NRAS Q61K, 7.00 to 8.00; at KRAS G12S, above 8.00; on KRAS G12C (setting [3]), above 8.00. The pIC50 at KRAS Q61H, at KRAS G13C (setting [4]) and in the experiment with NCI-H358 (K-Ras G12C) was above 8.00 in each case.

Turning to `C=CC(=O)N1CCN(c2nc(=O)n(-c3c(C)ccnc3C(C)C)c3nc(-c4c(O)cccc4F)c(F)cc23)[C@@H](C)C1` [AMG510], the “sensitivity of SWi573 to inhibitor” value with SWi573 is given as “insensitive”.

With `CCn1c(-c2cnccc2COC)c2c3cc(ccc31)-c1cc(O)cc(c1)C[C@H](NC(=O)[C@H](C(C)C)N(C)C(=O)OC1CN(C)C1)C(=O)N1CCC[C@H](N1)C(=O)OCC(C)(C)C2` [Compound A74], the pEC50 in the experiment on Capan-1 (K-Ras G12V) was 6.38; in experiment [1] it was 6.48; in the experiment on AsPC-1 (K-Ras G12D) it was 6.33. For the same compound, the pIC50 against KRAS G12D was 6.64; at KRAS G12C (read-out: FRET G12C IC50), 6.35; at KRAS G12V (read-out: FRET G12V IC50), 5.44; at KRAS G13C (read-out: FRET G13C IC50) it was 7.04; at KRAS G13D, 6.67.

Turning to `Cc1nc(N2CCC3(CC2)CO[C@@H](C)[C@H]3N)c(CO)nc1-c1cccc(Cl)c1Cl` [RMC-4550], in experiment [2], the TGI amounted to 39%.
